Measured values reported in patent publication US6355799B1, “Substituted benzene compounds, process for their preparation, and herbicidal and defoliant compositions containing them” (ISK Americas Incorporated, priority 1997, dated 2002).

Key:
Type in all cases: in vivo
[1] = system: redroot pigweed (Amaranthus retroflexus, AMARE); test: Pre-emerge test, greenhouse herbicide activity screening; conditions: pre-emerge, 14 days after application, rating scale 0-100
How it was run: (§1)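 Compounds in acetone were track-sprayed at 15-1000 g ai/ha (187 l/ha) on sandy loam pots: pre-emerge one day after seeding, post-emerge at 2-3 leaf stage with 0.25% v/v non-ionic surfactant. Phytotoxicity was rated 14 days later on a 0 (no damage) to 100 (complete death) scale.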

[2] = system: sicklepod (Cassia obtusifolia, CASOB); test: as above; conditions: pre-emerge, 14 days after application, rating scale 0-100
From the text: (§2) A standard greenhouse herbicide activity screening system was used to evaluate the herbicidal efficacy and crop safety of these test compounds. Seven broadleaf weed species including redroot pigweed (Amaranthus retroflexus, AMARE, velvetleaf (Abutilon theophrasti, ABUTH), sicklepod (Cassia obtusifolia, CASOB), ivyleaf morningglory (Ipomoea hederacea, IPOHE), lambsquarters (Chenopodium album, CHEAL), common ragweed (Ambrosia artemisizfolia L., AMBEL), and cocklebur (Xanthium strumarium, XANST) were used as test species. Four grass weed species including green foxtail (Setaria viridis, SETVI), barnyardgrass (Echinochloa crus-galli, ECHCG), johnsongrass (Sorghum halepense, SORHA), and large crabgrass (Digitaria sanguinalis, DIGSA) were also used. In addition, three crop species, field corn (Zea mays L., var. Dekalb 535, CORN), soybean (Glycine max L., var. Pella 86, SOY), and is upland rice (Oryza sp., var. Tebonnet, RICE) were included.
(§3) All plants were grown in 10 cm square plastic pots which were filled with a sandy loam soil mix. For pre-emerge tests, seeds were planted one day prior to application of the test compounds. For post-emerge tests, seeds were planted 8-21 days prior to the test to allow emergence and good foliage development prior to application of the test substances. At the time of the post-emerge application, plants of all species were usually at the 2-3 leaf stage of development.
(§4) All test compounds Were dissolved in acetone and applied to the test units in a volume of 187 l /ha. Test materials were applied at rates ranging from 15 g ai/ha to 1000 g ai/ha using a track sprayer equipped with a TJ8001E even flow flat fan spray nozzle. Plants were arranged on a shelf so that the top of the canopy (post-emerge) or top of the soil surface (pre-emerge) was 40-45 cm below the nozzle. Pressurized air was used to force the test solution through the nozzle as it was mechanically advanced (via electrically driven chain drive) over the top of all test plants/pots. This application simulates a typical commercial field herbicide application.
(§5) In the post-emerge test, a commercial non-ionic surfactant was also included (0.25% v/v) to enhance wetting of the leaf surfaces of target plants. Immediately after application, test units of the pre-emerge applications were watered at the soil surface to incorporate the test materials. Subsequently, these test units were bottom-watered. Post-emerge test units were always bottom-watered.
(§6) At 14 days after application of the test materials, phytotoxicity ratings were recorded. A rating scale of 0-100 was used as previously described in Research Methods in Weed Science, 2nd edition, B. Truelove, Ed., Southern Weed Science Society, Auburn University, Auburn, Ala. 1977. Briefly, “0” corresponds to no damage and “100” corresponds to complete death of all plants in the test unit. This scale was used both to determine efficacy against weed species and damage to crop species. Herbicide activity data for various compounds of this invention, which are shown by compound No. in Tables 1-8, are shown in Tables 11 and 12.

[3] = system: velvetleaf (Abutilon theophrasti, ABUTH); test: as above; conditions: pre-emerge, 14 days after application, rating scale 0-100
From the text: as §2, §3, §4, §5, §6

[4] = system: barnyardgrass (Echinochloa crus-galli, ECHCG); test: as above; conditions: pre-emerge, 14 days after application, rating scale 0-100
From the text: as §2, §3, §4, §5, §6

[5] = system: lambsquarters (Chenopodium album, CHEAL); test: as above; conditions: pre-emerge, 14 days after application, rating scale 0-100
From the text: as §2, §3, §4, §5, §6

[6] = system: large crabgrass (Digitaria sanguinalis, DIGSA); test: as above; conditions: pre-emerge, 14 days after application, rating scale 0-100
From the text: as §2, §3, §4, §5, §6

[7] = system: ivyleaf morningglory (Ipomoea hederacea, IPOHE); test: as above; conditions: pre-emerge, 14 days after application, rating scale 0-100
From the text: as §2, §3, §4, §5, §6

[8] = system: green foxtail (Setaria viridis, SETVI); test: as above; conditions: pre-emerge, 14 days after application, rating scale 0-100
From the text: as §2, §3, §4, §5, §6

[9] = system: upland rice (Oryza sp., var. Tebonnet, RICE); test: Pre-emerge test, crop safety; conditions: pre-emerge, 14 days after application, rating scale 0-100
How it was run: (§7)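 Plants grown in 10 cm pots of sandy loam mix received acetone-dissolved compounds through a moving flat-fan nozzle. Doses ranged from 15 to 1000 g ai/ha. Pre-emerge pots were seeded one day earlier, post-emerge pots 8–21 days earlier. Fourteen days on, each pot was graded 0–100 for damage.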

[10] = system: field corn (Zea mays L., var. Dekalb 535, CORN); test: Pre-emerge test, crop safety; conditions: pre-emerge, 14 days after application, rating scale 0-100
How it was run: as §7

[11] = system: sicklepod (Cassia obtusifolia, CASOB); test: Post-emerge test, greenhouse herbicide activity screening; conditions: post-emerge, 14 days after application, rating scale 0-100
From the text: as §2, §3, §4, §5, §6

[12] = system: velvetleaf (Abutilon theophrasti, ABUTH); test: as above; conditions: post-emerge, 14 days after application, rating scale 0-100
From the text: as §2, §3, §4, §5, §6

[13] = system: barnyardgrass (Echinochloa crus-galli, ECHCG); test: as above; conditions: post-emerge, 14 days after application, rating scale 0-100
From the text: as §2, §3, §4, §5, §6

[14] = system: lambsquarters (Chenopodium album, CHEAL); test: as above; conditions: post-emerge, 14 days after application, rating scale 0-100
From the text: as §2, §3, §4, §5, §6

[15] = system: large crabgrass (Digitaria sanguinalis, DIGSA); test: as above; conditions: post-emerge, 14 days after application, rating scale 0-100
From the text: as §2, §3, §4, §5, §6

[16] = system: ivyleaf morningglory (Ipomoea hederacea, IPOHE); test: as above; conditions: post-emerge, 14 days after application, rating scale 0-100
From the text: as §2, §3, §4, §5, §6

[17] = system: redroot pigweed (Amaranthus retroflexus, AMARE); test: as above; conditions: post-emerge, 14 days after application
From the text: as §2, §3, §4, §5, §6

[18] = system: green foxtail (Setaria viridis, SETVI); test: as above; conditions: post-emerge, 14 days after application, rating scale 0-100
From the text: as §2, §3, §4, §5, §6

[19] = system: upland rice (Oryza sp., var. Tebonnet, RICE); test: Post-emerge test, crop safety; conditions: post-emerge, 14 days after application, rating scale 0-100
How it was run: as §1

[20] = system: field corn (Zea mays L., var. Dekalb 535, CORN); test: Post-emerge test, crop safety; conditions: post-emerge, 14 days after application, rating scale 0-100
How it was run: as §1

For COc1c(Cl)cc(F)c(-n2c(=O)cc(C(F)(F)F)n(C)c2=O)c1NNC(=O)Nc1ccc(F)cc1F [15-8], the “phytotoxicity rating AMARE” value ([1]; 63 g ai/ha) was 60, the “phytotoxicity rating AMARE” value ([1]; 250 g ai/ha) was 100 and the “phytotoxicity rating CASOB” value ([2]; 63 g ai/ha) was 20. For the same compound, the “phytotoxicity rating CASOB” value ([2]; 250 g ai/ha) was 80, the “phytotoxicity rating ABUTH” value ([3]; 63 g ai/ha) was 40 and the “phytotoxicity rating ABUTH” value ([3]; 250 g ai/ha) was 100. The “phytotoxicity rating ECHCG” value ([4]; 63 g ai/ha) was 0, the “phytotoxicity rating ECHCG” value ([4]; 250 g ai/ha) was 40 and the “phytotoxicity rating CHEAL” value ([5]; 63 g ai/ha) was 60. For the same compound, the “phytotoxicity rating CHEAL” value ([5]; 250 g ai/ha) was 100, the “phytotoxicity rating DIGSA” value ([6]; 63 g ai/ha) was 30 and the “phytotoxicity rating DIGSA” value ([6]; 250 g ai/ha) was 100. The “phytotoxicity rating IPOHE” value ([7]; 63 g ai/ha) was 0, the “phytotoxicity rating IPOHE” value ([7]; 250 g ai/ha) was 70 and the “phytotoxicity rating SETVI” value ([8]; 63 g ai/ha) was 20. For the same compound, the “phytotoxicity rating SETVI” value ([8]; 250 g ai/ha) was 0, the “phytotoxicity rating RICE” value ([9]; 63 g ai/ha) was 15 and the “phytotoxicity rating RICE” value ([9]; 250 g ai/ha) was 90. For the same compound, the “phytotoxicity rating CORN” value ([10]; 63 g ai/ha) was 0, the “phytotoxicity rating CORN” value ([10]; 250 g ai/ha) was 90 and the “Post-emerge Herbicidal Activity CASOB (phytotoxicity rating)” value ([11]; 63 g ai/ha) was 0. The “Post-emerge Herbicidal Activity CASOB (phytotoxicity rating)” value ([11]; 250 g ai/ha) was 40, the “Post-emerge Herbicidal Activity ABUTH (phytotoxicity rating)” value ([12]; 63 g ai/ha) was 70 and the “Post-emerge Herbicidal Activity ABUTH (phytotoxicity rating)” value ([12]; 250 g ai/ha) was 100. The “Post-emerge Herbicidal Activity ECHCG (phytotoxicity rating)” value ([13]; 63 g ai/ha) was 0, the “Post-emerge Herbicidal Activity ECHCG (phytotoxicity rating)” value ([13]; 250 g ai/ha) was 20 and the “Post-emerge Herbicidal Activity CHEAL (phytotoxicity rating)” value ([14]; 63 g ai/ha) was 95. The “Post-emerge Herbicidal Activity CHEAL (phytotoxicity rating)” value ([14]; 250 g ai/ha) was 90, the “Post-emerge Herbicidal Activity DIGSA (phytotoxicity rating)” value ([15]; 63 g ai/ha) was 0 and the “Post-emerge Herbicidal Activity DIGSA (phytotoxicity rating)” value ([15]; 250 g ai/ha) was 0. For the same compound, the “Post-emerge Herbicidal Activity IPOHE (phytotoxicity rating)” value ([16]; 63 g ai/ha) was 50, the “Post-emerge Herbicidal Activity IPOHE (phytotoxicity rating)” value ([16]; 250 g ai/ha) was 90 and the “Post-emerge Herbicidal Activity AMARE (phytotoxicity rating)” value ([17]; 63 g ai/ha, rating scale 0-100 (0 no damage, 100 complete death)) was 20. The “Post-emerge Herbicidal Activity AMARE (phytotoxicity rating)” value ([17]; 250 g ai/ha, rating scale 0-100) was 60, the “Post-emerge Herbicidal Activity SETVI (phytotoxicity rating)” value ([18]; 63 g ai/ha) was 0 and the “Post-emerge Herbicidal Activity SETVI (phytotoxicity rating)” value ([18]; 250 g ai/ha) was 30. The “Post-emerge Herbicidal Activity RICE (crop damage rating)” value ([19]; 63 g ai/ha) was 10, the “Post-emerge Herbicidal Activity RICE (crop damage rating)” value ([19]; 250 g ai/ha) was 60 and the “Post-emerge Herbicidal Activity CORN (crop damage rating)” value ([20]; 63 g ai/ha) was 0. The “Post-emerge Herbicidal Activity CORN (crop damage rating)” value ([20]; 250 g ai/ha) was 55.
